Data: patent US20160038439A1, “Use of 7-a-[9-(4,4,5,5,5-pentafluoropentylsulfinyl)nonyl]-estra-1,3,5(10)- triene-3,17B-diol and derivatives thereof” (XI'ANLIBANG PHARMACEUTICAL TECHNOLOGY CO., LTD., priority 2013, published 2016)
Marks after values point to notes of the source that are not given here.

Key:
[1] = tested on: chicken type II collagen-induced arthritis model in SD rats; test: Thickness of right hindfoot ankle joint by microcalliper, collagen-induced arthritis rats; format: in vivo
Description: (§1) After inflamed model was successfully established in SD rats, the SD rats were randomly divided into model control group (12 rats), low, medium dose group (8 rats for each), and high dose group (12 rats) of test drug depending on body weight. Rats in the model control group were administered a blank fat emulsion injection (0.5 mL) by tail vein injection every other day for 7 days; rats in the low and medium dose group of test drug were administered a fat emulsion injection of a compound of Formula A (specifically including Compounds I-VI described hereafter) by tail vein injection every other day for 7 days; rats in the high dose group of test drug were administered a fat emulsion injection of a compound of Formula A by tail vein injection every other day for 14 days. 12 same models in the normal control group were also administered a blank fat emulsion injection. Indexes such as hindfoot joint score, hindfoot joint thickness measurement, TNF-α level in serum and hindfoot joint tissues, hindfoot joint pathological section and the like were used to evaluate efficacy of the drug.
(§2) Chicken type II collagen was dissolved in 0.1 mol/L acetic acid at 4° C. while stirring so as to be thoroughly dissolved at a concentration of 2 mg/mL The resulting solution was put into a refrigerator at 4° C. overnight. Liquid paraffin and lanolin were mixed at a ratio of 2:1 (volume ratio), and the mixture was autoclaved to prepare an incomplete Freund's adjuvant (IFA). Bacillus Calmette Guerin (BCG) vaccine (60 mg) was inactivated at 80° C. for 1 hour and transferred to a mortar, into which was dropwise added IFA. After being uniformly grinded, the resulting mixture was pushed and sucked repeatedly by double-syringe to prepare a complete Freund's adjuvant (CFA), with the final concentration of BCG vaccine being 2 mg/mL. An equal amount of chicken type II collagen acid solution was mixed with CFA into a stable emulsion (containing 1 mg chicken type II collagen per milliliter).
(§3) 12 female SD rats were randomly selected from 192 female SD rats as normal control group. The remaining 180 rats was disinfected with iodine tincture. After being deiodinated with 75% ethanol, each of the rat was administered 150 μL collagen emulsion by intradermal injection at the base of the tail, and was administered 100 μL collagen emulsion by intradermal injection at the vola pedis of right hindfoot. Thus, totally 250 μL for each rat was administered. 7 days later, an equal amount of collagen emulsion was intraperitoneal injected as a secondary immune.
(§4) Animal grouping and administration: inflamed rats were divided into model control group, low, medium and high dose groups of test drug based on body weight.
(§5) Rats in each group were scored for the hindfoot joint and measured for the thickness of ankle joint before being inflamed. Normal rats were taken blood from orbital venous plexus. The serum of the blood was separated out and cryopreserved at −20° C. to detect cytokines. Rats were scored for joint after being inflamed for 3 days, and were measured for the thickness of ankle joint before administration (on the 19th day since being inflamed), on the 3rd day and 8th day after administration (on the […] since being inflamed). Rats in each group were taken blood from orbital venous plexus when inflammation was severe (on the 23rd day after being inflamed). The serum of the blood was separated out and cryopreserved at −20° C. 8 rats for each group were sacrificed on the 28th day after being inflamed and were taken blood from intraperitoneal vein. The serum of the blood was separated out and was subjected to serological detection (TNF-α). The rest of rats were sacrificed on the 35th day after being inflamed, and histology index detection was carried out

[2] = tested on: chicken type II collagen-induced arthritis model in SD rats; test: Hindfoot joint score in chicken type II collagen-induced arthritis model in SD rats; format: in vivo; parameters: scale not given here; conditions: tail vein, every other day
Description: as §1, §2, §3, §4, §5

[3] = tested on: chicken type II collagen-induced arthritis model in SD rats; test: Pathological examination score of hindfoot ankle joint of rats with arthritis; format: in vivo; conditions: high dose group (1.40-2.16 mg/kg per compound), every other day for 14 days, n=4
Description: as §1, §2
12 female SD rats were randomly selected from 192 female SD rats as normal control group. The remaining 180 rats was disinfected with iodine tincture. After being deiodinated with 75% ethanol, each of the rat was administered 150 μL collagen emulsion by intradermal injection at the base of the tail, and was administered 100 μL collagen emulsion by intradermal injection at the vola pedis of right hindfoot. […]
Rats in each group were scored for the hindfoot joint and measured for the thickness of ankle joint before being inflamed. […] Rats were scored for joint after being inflamed for 3 days, and were measured for the thickness of ankle joint before administration (on the 19th day since being inflamed), on the 3rd day and 8th day after administration (on the 20th day since being inflamed). […]

TNF-α [4] = test: TNF-α level in hindfoot ankle joint tissue of rats with arthritis; format: in vivo, SD rats
Description: as §1
(§6) Compound I used in the present invention was purchased from Xi′ an Libang Pharmaceutical Co., Ltd.; Compounds II-IV were synthesized by the following method. SD rats used in the present invention were purchased from Super-B&K Laboratory Animal Corp. Ltd.; chicken type II collagen was purchased from Sigma, Lot No. 87H5227; rat tumor necrosis factor-α [TNF-α] enzyme-linked immunoassay kit (ELISA) was purchased from Shanghai Biovol Biotech Co., Ltd., Lot No. BV-E12102201.
as §2, §3, §4
as §5, with “8 rats for each group were sacrificed on the 28th day after being inflamed and were taken blood from intraperitoneal vein. The serum of the blood was separated out and was subjected to serological detection (TNF-α). The rest of rats were sacrificed on the 35th day after being inflamed, and histology index detection was carried out” left out

TNF-α [5] = test: TNF-α level in serum of rats with arthritis (ELISA); format: in vivo, SD rats
Description: as §1, §6, §2, §3, §4
as §5, with “8 rats for each group were sacrificed on the 28th day after being inflamed and were taken blood from intraperitoneal vein. The serum of the blood was separated out and was subjected to serological detection (TNF-α). The rest of rats were sacrificed on the 35th day after being inflamed, and histology index detection was carried out” left out

[6] = high dose group, before administration (baseline)
[7] = high dose group, the 3rd day after administration
[8] = high dose group, the 8th day after administration
[9] = low dose group, before administration (baseline)
[10] = low dose group, the 3rd day after administration
[11] = low dose group, the 8th day after administration
[12] = medium dose group, before administration (baseline)
[13] = medium dose group, the 3rd day after administration
[14] = medium dose group, the 8th day after administration
[15] = left ankle joint, high dose group
[16] = left ankle joint, low dose group
[17] = left ankle joint, medium dose group
[18] = right ankle joint, high dose group
[19] = right ankle joint, low dose group
[20] = right ankle joint, medium dose group

| Substance | Thickness of ankle joint (mean ± SD) [1, 6] | Thickness of ankle joint (mean ± SD) [1, 7] | Thickness of ankle joint (mean ± SD) [1, 8] | Thickness of ankle joint (mean ± SD) [1, 9] | Thickness of ankle joint (mean ± SD) [1, 10] | Thickness of ankle joint (mean ± SD) [1, 11] | Thickness of ankle joint (mean ± SD) [1, 12] | Thickness of ankle joint (mean ± SD) [1, 13] | Thickness of ankle joint (mean ± SD) [1, 14] | Mean value of hindfoot joint score [2, 6] | Mean value of hindfoot joint score [2, 7] | Mean value of hindfoot joint score [2, 8] | Mean value of hindfoot joint score [2, 9] | Mean value of hindfoot joint score [2, 10] | Mean value of hindfoot joint score [2, 11] | Mean value of hindfoot joint score [2, 12] | Mean value of hindfoot joint score [2, 13] | Mean value of hindfoot joint score [2, 14] | Joint lesion score (mean ± SD) [3] | TNF-α level in ankle (mean ± SD) (TNF-α [4]; [15]) | further results |
| --- | --- | --- | --- | --- | --- | --- | --- | --- | --- | --- | --- | --- | --- | --- | --- | --- | --- | --- | --- | --- | --- |
| 7-α-[9-(4,4,5,5,5-pentafluoropentylsulfinyl)nonyl]-estra-1,3,5(10)-triene-3-hydroxyl-17-docosanoyl [Compound III] | 6.59 ± 0.44 mm | 6.55 ± 0.56 mm | 6.31 ± 0.69 mm | 5.94 ± 0.52 mm | 6.22 ± 0.38 mm | 6.06 ± 0.29 mm | 6.33 ± 0.52 mm | 6.45 ± 0.53 mm | 6.36 ± 0.46 mm | 5.4 | 4.8**^# | 5.6 | 4.5 | 5.3**^## | 5 | 5 | 4.8** | 5.4 | 1.50 ± 1.91 | 11.05 ± 3.96 pg/mL | TNF-α level in ankle (mean ± SD) (TNF-α [4]; [16]): 12.93 ± 4.15 pg/mL; TNF-α level in ankle (mean ± SD) (TNF-α [4]; [17]): 13.62 ± 3.42 pg/mL; TNF-α level in ankle (mean ± SD) (TNF-α [4]; [18]): 13.85 ± 3.38 pg/mL; TNF-α level in ankle (mean ± SD) (TNF-α [4]; [19]): 14.13 ± 4.20 pg/mL; TNF-α level in ankle (mean ± SD) (TNF-α [4]; [20]): 12.02 ± 5.91 pg/mL; TNF-α level in serum (mean ± SD) (TNF-α [5]; [7]): 16.53 ± 15.71 pg/mL; TNF-α level in serum (mean ± SD) (TNF-α [5]; [8]): 10.36 ± 7.08 pg/mL; TNF-α level in serum (mean ± SD) (TNF-α [5]; [10]): 81.94 ± 141.25 pg/mL; TNF-α level in serum (mean ± SD) (TNF-α [5]; [11]): 157.89 ± 248.01 pg/mL; TNF-α level in serum (mean ± SD) (TNF-α [5]; [13]): 12.31 ± 17.56 pg/mL; TNF-α level in serum (mean ± SD) (TNF-α [5]; [14]): 39.56 ± 29.29 pg/mL |
| 7-α-[9-(4,4,5,5,5-pentafluoropentylsulfinyl)nonyl]-estra-1,3,5(10)-triene-3-hydroxyl-17-undecanoyl [Compound II] | 6.31 ± 0.52 mm | 6.29 ± 0.69 mm | 5.83 ± 0.61 mm | 6.39 ± 0.68 mm | 6.05 ± 0.55 mm | 5.98 ± 0.19 mm | 5.99 ± 0.57 mm | 6.31 ± 0.54 mm | 6.31 ± 0.51 mm | 4.7 | 5.3**^# | 4.9 | 4.9 | 4.8** | 5.6^# | 4.9 | 4.9** | 4.9 | 2.50 ± 2.65 | 14.08 ± 4.09 pg/mL | TNF-α level in ankle (mean ± SD) (TNF-α [4]; [16]): 13.79 ± 4.68 pg/mL; TNF-α level in ankle (mean ± SD) (TNF-α [4]; [17]): 15.91 ± 5.84 pg/mL; TNF-α level in ankle (mean ± SD) (TNF-α [4]; [18]): 15.11 ± 4.32 pg/mL; TNF-α level in ankle (mean ± SD) (TNF-α [4]; [19]): 13.79 ± 3.26 pg/mL; TNF-α level in ankle (mean ± SD) (TNF-α [4]; [20]): 12.13 ± 3.35 pg/mL; TNF-α level in serum (mean ± SD) (TNF-α [5]; [7]): 26.72 ± 35.26 pg/mL; TNF-α level in serum (mean ± SD) (TNF-α [5]; [8]): 25.65 ± 20.66 pg/mL; TNF-α level in serum (mean ± SD) (TNF-α [5]; [10]): 48.28 ± 94.84 pg/mL; TNF-α level in serum (mean ± SD) (TNF-α [5]; [11]): 201.35 ± 250.23 pg/mL; TNF-α level in serum (mean ± SD) (TNF-α [5]; [13]): 11.00 ± 9.39 pg/mL; TNF-α level in serum (mean ± SD) (TNF-α [5]; [14]): 75.12 ± 93.40 pg/mL |
